# Test results from patent publication EP1104674A1, “O,o'-dihydroxy azo dyes as medicinal components with TPO-agonistic or -synergetic activity” (Curacyte AG, priority 1999, dated 2001).
# Molecular target: T1, humanen mpl-Rezeptor (Homo sapiens, UniProt P40238)
# T1 sequence (P40238 26-635): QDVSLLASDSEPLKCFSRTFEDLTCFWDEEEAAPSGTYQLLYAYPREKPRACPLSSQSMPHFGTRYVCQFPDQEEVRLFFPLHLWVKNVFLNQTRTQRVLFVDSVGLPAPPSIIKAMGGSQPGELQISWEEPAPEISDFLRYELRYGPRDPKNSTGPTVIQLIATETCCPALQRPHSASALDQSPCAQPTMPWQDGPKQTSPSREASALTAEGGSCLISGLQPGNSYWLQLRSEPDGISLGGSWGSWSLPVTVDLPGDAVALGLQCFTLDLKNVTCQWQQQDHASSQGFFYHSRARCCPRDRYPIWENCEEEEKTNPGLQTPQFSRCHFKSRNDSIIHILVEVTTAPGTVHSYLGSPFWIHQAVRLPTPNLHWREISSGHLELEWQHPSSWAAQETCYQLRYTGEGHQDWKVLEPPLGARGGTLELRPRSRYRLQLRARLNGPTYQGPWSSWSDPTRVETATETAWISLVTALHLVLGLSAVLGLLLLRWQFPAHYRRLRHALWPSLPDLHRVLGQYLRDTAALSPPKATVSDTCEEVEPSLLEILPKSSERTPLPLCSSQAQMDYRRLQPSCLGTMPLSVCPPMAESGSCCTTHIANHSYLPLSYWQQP
# Assay: TPO-dependent cell proliferation test with BaF3 cells transfected with the human mpl receptor (BaF3/mpl), WST readout
# Assay type: cell-based
# Settings: BaF3-mpl Rezeptor Proliferationstest; 48 bis 72 h; half-maximal stimulation after background subtraction
# From the text: Die Bioaktivität der erfindungsgemäßen Verbindungen kann mittels eines TPO-abhängigen Zellproliferationstests gemessen werden. Die Substanzen dürfen keine Wirkung auf die nicht transfektierten parenteralen BaF3 Zellen ausüben. Murine IL-3-abhängig wachsende BaF3 Zellen wurden mit dem humanen mpl-Rezeptor transfektiert. In Abwesenheit von IL-3 ist die Proliferation und das Überleben dieser Zellen abhängig von TPO. Die parentale, untransfektierte Zell-Linie reagiert nicht auf humanes TPO, proliferiert aber in Gegenwart von IL-3. Die Bestimmung der Zellproliferation erfolgt nach literaturbekannten Verfahren (WO 96/40750). Die chemischen Substanz-Bibliotheken wurden in Bioassays mit den beiden obigen Zell-Linien gescreent. Die Zellen wurden in Gegenwart von IL-3 (BaF3 parental) bzw. TPO (BaF3-mpl-Rezeptor tragend = BaF3/mpl) in RPMI 1640 Medium in Gegenwart von 10 % FCS (fetales Kälberserum) gezüchtet. Für den Test wurden die Zellen zweimal in IL-3 bzw. TPO freiem Medium gewaschen und im Medium, das kein TPO bzw. IL-3 enthielt, resuspendiert. Diese Zellsuspension wurde dann zur Vertiefung einer 96 Tüpfelplatte (Costar), die TPO oder IL-3 und/oder Verbindung enthielt, in einer Menge von 10^4 Zellen/Vertiefung zugegeben. Die Zellen wurden dann für 48 bis 72 h bei 37°C in einem CO2 Inkubator inkubiert. Die proliferative Aktivität wurde bestimmt durch die Zugabe von WST (WST: Zell-Proliferations-Reagens; BM-Katalog-Nr. 1644807 "Tetrazolium-Salz").WST wird von proliferierenden Zellen zu Formazan umgewandelt und diese Umwandlung, als Maß für die Proliferation wird mittels OD (OD: optical density) bei 570 nm in einem ELISA Platten Meßgerät bestimmt.
# Zur Ermittlung der halbmaximalen Stimulation wurde vom maximal erzielten Signal der Background (Zellen ohne Substanz) abgezogen und dieser Wert durch 2 geteilt. Dieser Wert plus dem Background-Wert wurden dann zur Bestimmung der EC50 (halbmaximale excitatorv concentration; Substratkonzentration, bei der die Substanz ihre halbmaximale Wirksamkeit im BaF3-mpl Rezeptor Proliferationstest ausübt) herangezogen. In Tabelle 3 sind die EC50-Werte bespielhaft für drei untersuchte Verbindungen dargestellt.
# Die untersuchten Verbindungen stimulieren die Proliferation von mit mpl-Rezepror transfektierten BaF3 Zellen in einer Dosis abhängigen Weise. Die Proliferation von parenteralen Zell-Linien wird nicht stimuliert. Auch in Abwesenheit von TPO stimulieren die Verbindungen die Proliferation der BaF3/mpl-Zellen in wochenlanger Kultur. Tabelle 3
row,EC50 [nM],Structure (SMILES)
1,1590,O=[N+]([O-])c1ccc2c(N=Nc3c(O)ccc4ccccc34)c(O)cc(S(=O)(=O)O)c2c1 [Beispiel 12]
2,5580,Cc1ccc(O)c(N=Nc2c(O)cc(S(=O)(=O)O)c3ccccc23)c1 [Beispiel 13]
3,72.8,"O=S(=O)(O)c1cccc2c(O)c(N=Nc3ccc(C(F)(F)F)cc3O)ccc12 [Beispiel 20, 5-Hydroxy-6-(2-hydroxy-4-trifluormethyl-phenylazo)naphthalin-1-sulfonsäure]"
4,1370,O=[N+]([O-])c1ccc2c(N=Nc3ccc4ccccc4c3O)c(O)cc(S(=O)(=O)O)c2c1 [Beispiel 9]
5,4480,Cc1ccc(NC(=O)c2cc3ccccc3c(N=Nc3cc(S(=O)(=O)O)ccc3O)c2O)c(C)c1 [Beispiel 15]
